Measured values as given in PMC9400227, “αvβ3 integrin-specific exosomes engineered with cyclopeptide for targeted delivery of triptolide against malignant melanoma” (Journal of Nanobiotechnology, 2022).
≈ marks a conversion by molar mass, not a printed value.

Experiments:
[1] = system: A375 cells; experiment: CCK-8 cytotoxicity assay; type: cell-based; settings: Homo sapiens, A-375, 24 h
Method: A375 cells were incubated with different concentrations of TP for 24 h. After that, 10 μL of CCK-8 was added to the treated cells and incubated for another 20 min. The absorbance was detected using a microplate reader.

[2] = system: A375 cells; experiment: Transwell invasion assay; type: cell-based, human; settings: A375 cells pretreated 6 h, Transwell with Matrigel 24 h
Method: Then, the differently treated cells were incubated in the apical Transwell insert (24-well plant covered with Matrigel polycarbonate membranes, pore size 8 μm). Meanwhile, 800 μL of DMEM with 10% FBS used for cell chemotaxis was added to the basolateral champers. After incubation for 24 h, the cells on the top side of the apical chamber were wiped, and then the migrated cells were fixed with 4% paraformaldehyde and stained with 0.1% crystal violet. After that, five random fields under an inverted microscope were visualized, and the migrated cells were counted by ImageJ software.

[3] = system: A375 cells; experiment: Cell apoptosis assay (Annexin V-APC/7-AAD flow cytometry); settings: 24 h
Method: Then, the cells were trypsinized by pancreatic enzymes without DMSO and resuspended in 500 μL 1× Binding Buffer. The cell suspension was stationarily cultured at room temperature for 15 min in the dark after adding 7-AAD and Annexin V-APC. Subsequently, cell apoptosis and necrosis were detected with a flow cytometer.

[4] = system: A375 cells; experiment: Cell cycle assay (PI staining); type: cell-based, human; settings: 24 h
Method: The cell cycle assay was carried out to explore the correlation between mitosis and cytotoxicity. […] The treated cells were then fixed with 70% ethanol for 12 h, washed with PBS 3 times, and stained with propidium iodide/RNase A for 30 min. After that, the red fluorescence of differently treated cells was recorded at 488 nm, and the DNA content of cells was also analyzed.

[5] = Plasma pharmacokinetics in tumor-bearing mice; settings: nude, mouse, in vivo, iv, 600 ug/kg
Method: The TP concentrations in blood, heart, liver, spleen, lung, kidney, and tumor tissues were also quantified over time. […] The preparations were injected intravenously at drug-equivalent doses of 600 μg/kg TP. After injection, blood was sampled from the orbital vein at 5 min, 10 min, 15 min, 30 min, 1 h, 2 h, 4 h, 6 h, and 24 h. In addition, heart, liver, spleen, lung, kidney, and tumor tissues were collected at 5 min, 30 min, 1 h, 2 h, 4 h, 6 h, and 24 h. Nine mice were sacrificed at each time point (n = 3), whereas at 10 min and 15 min, the mice were only taken for blood and were not killed. The TP concentration in plasma and tissue homogenate was analyzed with UHPLC-MS/MS.
TP concentrations in cells, plasma, primary organs, and tumors were analyzed using UHPLC-MS/MS (Thermo Fisher Scientific, CA, USA). The separation was performed on an ACQUITY UPLCTM BEH C18 column (2.1 × 100 mm, i.d., 1.7 μm). The column temperature was maintained at 40 °C. The mobile phases were 1% acetic acid aqueous solution (A) and methanol (B). Isocratic elution with 40% A and 60% B was adopted at a flow rate of […]. The temperature and flow rate of dry gas (N2) were 350 °C and 8 L/min, respectively. The pressure of the nebulizer gas (N2) was 40 psi. The capillary voltage was […]. The positive multiple reaction monitoring (MRM) mode was adopted to determine TP and carbamazepine (internal standard, IS). The collision energy was 33 eV for both TP and IS. The precursor-to-product transitions were m/z 361.1 → 105.2 for TP and m/z 237.1 → 194.0 for IS.

[6] = In vivo antitumor efficacy in A375 xenograft tumor model; settings: tumor-bearing mice, Kaplan–Meier; control 25.5 days
[7] = mouse, in vivo
Method: Briefly, the mouse bodyweight of all groups was recorded throughout the treatment period. To evaluate systemic safety, after the termination of treatment, the tissues of the heart, liver, spleen, lung, and kidney were collected to calculate organ indexes [mass of the organ (mg)/bodyweight (g)] and to stain for H&E. In addition, orbital blood was sampled for a routine blood test, hepatic function test and renal function test, including RBC, WBC, ALT, and Cr.

[8] = system: malignant melanoma; set-up: method as in PMID 31564801; settings: chemotherapeutic drug for MM; cited from earlier work

Row | SMILES | IC50 [1] | invasion inhibition rate [2] | apoptosis and necrosis (mortal cells) [3] | cell population of the S phase ([4]; control 8.07 ± 0.39%) | cell population of the G0/G1 phase ([4]; control 88.91 ± 0.81%) | AUC(0-inf) [5] | Cmax [5] | MRT [5] | clearance [5] | half-life [5] | mean survival time [6] | ALT (alanine aminotransferase) [7] | Cr (creatinine) [7] | H&E staining of normal tissues [7] | RBC (red blood cell) [7] | WBC (white blood cell) [7] | mice bodyweight during the treatment period [7] | organ indexes versus control [7] | total effective rate [8]
1 | CC(C)[C@]12O[C@H]1[C@@H]1O[C@]13[C@]1(O[C@H]1C[C@H]1C4=C(CC[C@@]13C)C(=O)OC4)[C@@H]2O [TP, triptolide] | 0.0696 µg/mL (≈ 0.193 µM) | 45.54 ± 6.35% | 22.10 ± 1.66% | 17.73 ± 0.79% | 72.87 ± 3.71% | 1400 ± 81.4 ng·h/mL | 612 ± 100 ng/mL | 3.6 ± 1.8 min | 36.6 mL/min/kg | 18.6 ± 3.6 min | 29.5 days | 76.25 ± 4.03 U/L | 27.76 ± 1.52 µmol/L | heart, liver, and kidney were damaged | 8.11 ± 0.65 × 10^12/L | 6.73 ± 0.51 × 10^9/L | suffered a bodyweight loss | significantly lower than those of the control mice | 
2 | CN(C)/N=N/c1[nH]cnc1C(N)=O [dacarbazine] |  |  |  |  |  |  |  |  |  |  |  |  |  |  |  |  |  |  | 10–15%
